Bridge positions count the residues as written; N and C are the ends. Peptide text beside a SMILES is read from it. I, II: the chains in the order shown.
Assays:
[1] = rabbit, in vivo; cited from earlier work
[2] = system: S. aureus (ATCC 29213); experiment: S. aureus viability estimated from colonies formed; assay type: cell-based, Staphylococcus aureus; conditions: Figure 1; two hours at 37°C; significant with peptide concentrations of 10^-12 to 10^-4 M
Experimental: (§1) Cultures of S. aureus (ATCC 29213) were obtained from the collection of the Department of Microbiology, Ospedale Maggiore di Milano. […] Cells were then washed in cold distilled water and diluted with HBSS to a concentration of 100 organisms/ml. One-milliliter aliquots were dispensed on blood agar plates and incubated for 24 hours at 37°C. Viability of the microorganisms was estimated from the colonies formed. In another set of experiments, 500 units of urokinase, a S. aureus growth enhancer, were also incubated with the bacteria (10^5/100ml) for four hours at 37°C in a shaking water bath together with the peptides.

[3] = system: C. albicans; conditions: for ability of C albicans to form colony: Figure 3, 10^-12 to 10^-4 M, p<0.01 vs. control; for C. albicans viability: Figure 4, procedures of Example II
Experimental: (§2) Clinical isolates of C. albicans were also obtained from the collection of the Department of Microbiology, Ospedale Maggiore di Milano. Cultures of C. albicans were maintained on Sabouraud's agar slants and periodically transferred to Sabouraud's agar plates and incubated for 48 hours at 28°C. To prepare stationary growth-phase yeast, a colony was taken from the agar plate, transferred into 30 ml of Sabouraud-dextrose broth, and incubated for 72 hours at 32°C. Cells were centrifuged at 1000xg for ten minutes, and the pellet was washed twice with distilled water. Cells were counted and suspended in Hank's balanced salt solution ("HBSS") to the desired concentration.
(§3) Cells were then washed in cold distilled water and diluted with HBSS to a concentration of 100 organisms/ml. One-milliliter aliquots were then dispensed on blood agar plates and incubated for 48 hours at 37°C. The organism's viability was estimated from the number of colonies formed.
(§4) The reactions were stopped after three minutes by the addition of ice cold ethanol. cAMP levels were measured in duplicates using a commercial enzyme immunoassay kit (Amersham, United Kingdom) after extraction-via the liquid-phase method according to the manufacturer's instructions. […] The effects of forskolin and ddAdo on the ability of C. albicans to form colonies were determined according to the procedures described in Example II.

[4] = system: C. albicans; experiment: C. albicans viability estimated from colonies formed; assay type: cell-based, Candida albicans; conditions: Figure 9; ddAdo 25, 50 and 100 x 10^-5 M for two hours, then peptide two additional hours
Experimental: as §2, §3, §4

[5] = system: C. albicans; experiment: C. albicans germ tube formation induced by horse serum; assay type: cell-based, Candida albicans; conditions: peptide 10^-6 M, 60 minutes at 37°C after horse serum induction
Experimental: C. albicans from stationary phase cultures were washed twice with distilled water and suspended in HBSS to a final concentration of 2 x 10^6/ml. Hyphal growth was induced by addition of 10% inactivated horse serum (GIBCO/ BRL, Paisley, Great Britain) to yeast incubated for 45 minutes at 37°C with continuous shaking. […] The percentage of filamentous cells was evaluated under a light microscope with the aid of a hemocytometer. Experiments were run in triplicates and at least 200 cells were scored. Photomicrographs were taken with a MC100 camera attached to an Axioskop Zeiss microscope.

[6] = system: HIV-1; conditions: Figure 11; 10^-5M; induced by IL-6, IL-10, PMA and in crowding condition
Text: Chronically HIV-1 infected promonocytic U1 cell line is an in vitro model of latent HIV infection in monocytes. These cells carry two integrated proviral copies of HIV, and constitutive expression of HIV is very low. Viral replication, however, as measured by RNA transcription , p24 antigen, or reverse transcriptase release, can be activated with different stimuli such as TNF-α, IL-6, IL-10, PMA or crowding of cells.
Crowding was achieved by seeding U 1 cells at a density of 2x10^5/ml and maintaining them in culture at 37°C in 5% CO2 without changing media for seven days. Cultures activated with cytokines or PMA were maintained for only 48 hours. Supernatants were then removed by centrifugation and assayed for p24 antigen using commercially available ELISA kits from Cellular Products, Inc. in Buffalo, NY, USA. Reverse transcriptase releases were also measured using a commercially available kit, ELISA Retrosys RT assay from Innovagen, Lund, Sweden.

[7] = system: NF-κB; experiment: NF-κB binding activity in nuclear extracts of U1 cells (gel shift); assay type: cell-based, human
Experimental: For the determination of specific bands, nuclear extracts were first incubated with 100 fold excess unlabeled probe for five minutes, before incubation with a labeled probe. […] The gels were dried and autoradiographed.

[8] = system: S. aureus; experiment: urokinase induced growth of S. aureus; assay type: cell-based, Staphylococcus aureus; conditions: Figure 2; peptide 10^-6M; 500 units of urokinase, four hours at 37°C
Experimental: as §1

[9] = system: C. albicans; experiment: killing of opsonized C. albicans by human neutrophils; assay type: cell-based, Candida albicans; conditions: Figure 6; 10^-12 to 10^-4 M; p<0.01
Experimental: Venous blood (20 ml) from healthy volunteers was anticoagulated with heparin. Neutrophils were then isolated using dextran sedimentation and centrifugation with Ficoll-Hypaque (Sigma Chemical Co., St. Louis, Missouri, USA). Erythrocytes were lysed via hypotonic shock with the resulting neutrophils representing at least 97% of the cell suspension. Cell viability; estimated by trypan blue exclusion, was greater than 98%. Neutrophils were resuspended in HBSS for the experiments. […] ID. NO. 4)or α-MSH (11-13) (SEQ. ID. […] After incubation, the culture tubes were placed on ice to stop growth, and extracellular organisms were washed twice with centrifugation at 1000-x g at 4°C. A 2.5% sodium deoxycholate solution was added to the suspension, and the tubes were shaken for five minutes. Cold distilled water was then added to obtain a suspension of 10^6 cells/ml. Two 1/100 serial dilution in HBSS were made to obtain a final suspension of 100 cells/ml. One-milliliter aliquots were then dispensed on blood agar plates and incubated for 48 hours at 37°C. Colony forming units were counted at the end of the incubation period with experiments running in triplicates and repeated using blood from five different donors.

[10] = system: HIV-1 RNA; experiment: Northern Blot analysis of HIV-1 RNA in PMA stimulated U1 cells; assay type: cell-based; conditions: Figure 12
[11] = system: C. albicans; experiment: cAMP content of permeabilized C. albicans (enzyme immunoassay); assay type: cell-based, Candida albicans; conditions: Figure 7; 10^-6 M, three minutes; same order of magnitude as equimolar forskolin
Experimental: ID. NO. 4), (11-13) (SEQ. ID. NO. 1), or forskolin, an agent known to increase intracellular cAMP. The reactions were stopped after three minutes by the addition of ice cold ethanol. cAMP levels were measured in duplicates using a commercial enzyme immunoassay kit (Amersham, United Kingdom) after extraction-via the liquid-phase method according to the manufacturer's instructions.

Compound: 8-13 sequence: α-MSH 8-13 sequence (RWGKPV)
- antipyretic potency relative to the 11-13 sequence [1]: greater than that of the 11-13 sequence

Compound: 9-13 sequence: α-MSH 9-13 sequence (WGKPV)
- antipyretic potency relative to the 11-13 sequence [1]: almost devoid of activity

Compound: 10-13 sequence: α-MSH(11-13) with addition of glycine to form the 10-13 sequence (GKPV)
- antipyretic potency relative to the 11-13 sequence [1]: slightly decreased potency

Compound: CC(=O)N[C@@H](CSSC[C@H](NC(C)=O)C(=O)N[C@@H](CCCCN)C(=O)N1CCC[C@H]1C(=O)N[C@H](C(N)=O)C(C)C)C(=O)N[C@@H](CCCCN)C(=O)N1CCC[C@H]1C(=O)N[C@H](C(N)=O)C(C)C [KPV dimer] (I: Ac-CKPV-NH2 / II: Ac-CKPV-NH2; disulfide I:1-II:1)
- S. aureus colony formation [2]: inhibited S. aureus colony formation
- ability of C albicans to form colony [3]: greatly reduced the ability of C albicans to form colony

Compound: C[C@H]1O[C@@H](n2cnc3c(N)ncnc32)C[C@@H]1O [ddAdo, dideoxyadenosine]
- effect of ddAdo on the growth inhibition of C. albicans by α-MSH (1-13) and (11-13) [4]: reverse the effect

Compound: CSCC[C@H](NC(C)=O)C(=O)N[C@@H](CCC(=O)O)C(=O)N[C@@H](Cc1c[nH]cn1)C(=O)N[C@@H](Cc1ccccc1)C(=O)N[C@@H](CCCNC(=N)N)C(=O)N[C@@H](Cc1c[nH]c2ccccc12)C(=O)NCC(N)=O [α-MSH (4-10), MEHFRWG]
- inhibition of colony forming units (CFU) ([3]; 48 h): approximately 50%

Compound: CC(=O)N[C@@H](Cc1c[nH]cn1)C(=O)N[C@@H](Cc1ccccc1)C(=O)N[C@@H](CCCNC(=N)N)C(=O)N[C@@H](Cc1c[nH]c2ccccc12)C(=O)NCC(=O)N[C@@H](CCCCN)C(=O)N1CCC[C@H]1C(=O)N[C@H](C(N)=O)C(C)C [α-MSH (6-13)] (Ac-HFRWGKPV-NH2)
- reduction in the number of filamentous cells [5]: approximately 50%

Compound: CC(=O)N[C@@H](CCCCN)C(=O)N1CCC[C@H]1C(=O)N[C@H](C(N)=O)C(C)C [α-MSH (11-13), KPV] (Ac-Lys-Pro-Val-NH2)
- reverse transcriptase release from U1 cells [6]: inhibited
- NF-κB activation ([7]; Figure 14, TNF-α (20ng/ml) stimulated U1 cells, four hours, peptide 10^-5 M): significantly reduced NF-κB activation
- NF-κB activation ([7]; resting cells): did not alter NF-κB activation
- growth enhancing effect of urokinase on S. aureus [8]: significantly countered the growth enhancing effect of urokinase
- neutrophil killing of C. albicans [9]: enhanced neutrophil killing of C. albicans
- S. aureus colony formation [2]: inhibited S. aureus colony formation
- transcription of both spliced and unspliced HIV-1 RNA [10]: inhibited
- cAMP content in the C. albicans [11]: enhanced cAMP content
- ability of C albicans to form colony [3]: greatly reduced the ability of C albicans to form colony
- growth of C. albicans ([3]; Figure 8, relative to control, p<0.01): significantly inhibited the growth of C. albicans
- reduction in the number of filamentous cells [5]: 54-58%

Compound: ACTH (1-39): adrenocorticotropic hormone (1-39), prepared by solid-phase peptide synthesis (SYSMEHFRWGKPVGKKRRPVKVYPNGAEDESAEAFPLEF; Corticotropin; UniProt P01189 138-176, looked up) [reference compound]
- C. albicans viability [3]: did not reduce C. albicans viability

Compound: ACTH (18-39): ACTH fragment (18-39) (CLIP) [reference compound]
- C. albicans viability [3]: did not reduce C. albicans viability

Compound: [Nle^4,D-Phe^7]- α-MSH
- potency in reducing fever relative to the parent peptide [1]: approximately ten times more potent
